From paper PMC5994430, “Mitochondrial Delivery of Phenol Substructure Triggers Mitochondrial Depolarization and Apoptosis of Cancer Cells” (Frontiers in Pharmacology, 2018) come the findings set out here.

Molecules are shown by their SMILES.

In general, IC50 refers to the concentration needed to halve the response being measured.

One assay deals with mitochondrial ROS. Nature of the assay: Mitochondrial ROS (MitoSOX Red) in A549 cells. Type of assay: cell-based, Human. Conditions: 0.1 μM, 4 h. How it is done:
The amount of ROS in mitochondrial extracts was measured fluorimetrically by incubating cell suspension at 37°C for 10 min with 10 μM of MitoSOX Red probe (Invitrogen Life Technologies), as per manufacturer’s instructions. Results were expressed as nmoles/mg mitochondrial proteins, using a calibration curve previously set with serial dilution of H2O2.
[t] Continuedof three experiments with similar results. (D) Confocal analysis of mitochondrial staining with MitoTracker® Green FM. Magnification: 60 × objective (0.52 numerical aperture); 10 × ocular lens. Bar: 10 μM. The micrographs are representative of three experiments with similar results. (E,F) The electron transport was measured spectrophotometrically in duplicates. ATP levels in mitochondrial extracts was measured by a chemiluminescence-based assay, in duplicates. Data are means ± SD (n = 3). For both panels: ^∗p < 0.001 vs. A549 ctrl cells; °p < 0.001 for BEAS-2B cells vs. the corresponding condition in A549 cells. (G,H) ROS amount in mitochondrial extracts and mitochondrial damage were measured fluorimetrically, in duplicates. Data are means ± SD (n = 3). […] There were no statistically significant differences between untreated (ctrl) and compound 1/compound 2-treated BEAS-2B cells for all the parameters analyzed in this figure.

Another assay concerns MDA-MB-231 cells. Nature of the assay: Cell viability (neutral red), IC50. Type of assay: cell-based. Conditions: Homo sapiens, MDA-MB-231 breast cancer cells, CompuSyn. The source says: (§1) Human colon cancer HT29 cells, colon-derived normal fibroblast CCD-18Co cells, lung cancer A549 cells, normal human bronchial epithelial (immortalized with adenovirus 12-SV40 virus hybrid Ad12SV40) BEAS-2B cells, breast cancer MDA-MB-231 cells, normal breast epithelial MCF10A cells, human osteosarcoma U-2OS cells were purchased from ATCC (Manassas, VA, United States). Primary osteoblasts were generated as reported previously ([Buondonno et al., 2016]). HMM and HMC were primary cells stabilized in culture as described ([Aldieri et al., 2004]). The use of primary cells was approved by Ethical Committee of the San Luigi Gonzaga Hospital, Orbassano, (protocol #126/2016). All subjects gave written informed consent in accordance with the Declaration of Helsinki. Cells were maintained in medium supplemented with 10% v/v fetal bovine serum, 1% v/v penicillin-streptomycin, 1% v/v L-glutamine. Morphological analysis was performed with a bright field microscope (Leica Microsystems, Wetzlar, Germany). At least 5 fields/experimental condition were examined.
(§2) The extracellular release of LDH, considered an index of cell damage and necrosis, was measured spectrophotometrically, as reported ([Riganti et al., 2013b]). The extracellular medium was centrifuged at 12,000 × g for 15 min to pellet cellular debris, the cells were washed with fresh medium, detached with 0.01% trypsin/EDTA, re-suspended in 0.2 ml of 82.3 mM triethanolamine phosphate-HCl (pH 7.6), and sonicated on ice with two 10-sec bursts. LDH activity was measured in the extracellular medium and in the cell lysate: 50 μl of extracellular medium or 5 μl of cell lysate were incubated at 37°C with 5 mM NADH. The reaction was started by adding 20 mM pyruvic acid and was monitored for 6 min, measuring absorbance at 340 nm using a Synergy HT Multi-Detection Microplate Reader (Bio-Tek Instruments, Winoosky, MT, United States). The reaction kinetics were linear throughout the time of measurement. Both intracellular and extracellular enzyme activities were expressed as μmol NADH oxidized/min/dish. The results were expressed as percentage of extracellular LDH versus total (intracellular plus extracellular) LDH. Cell viability was measured by the neutral red staining method, as previously reported ([Riganti et al., 2015b]). The absorbance of untreated cells was considered as 100% viability; the results were expressed as percentage of viable cells versus untreated cells. IC50 was calculated with the CompuSyn software^1.

The next assay deals with CCD-18Co cells. Nature of the assay: Cell viability (neutral red), IC50. Type of assay: cell-based. Conditions: Homo sapiens, CCD-18Co colon-derived normal fibroblasts, CompuSyn.
Excerpt: as §1, §2

For a further assay, the system named is MCF10A cells. In words: Cell viability (neutral red), IC50. Type of assay: cell-based. Conditions: Homo sapiens, MCF-10A, MCF10A normal breast epithelial cells, CompuSyn.
Excerpt: as §1, §2

A further assay concerns Primary osteoblasts. In words: Cell viability (neutral red), IC50. Type of assay: cell-based. Conditions: Homo sapiens, Osteoblast, CompuSyn.
Excerpt: as §1, §2

In assay [1] the test system is HMM (human malignant mesothelioma) cells. Nature of the assay: Cell viability (neutral red), IC50. Particulars: HMM primary malignant mesothelioma cells, CompuSyn. Type of assay: cell-based.
Excerpt: as §1, §2

Assay [2] has as its system HMC (human mesothelial cells). Nature of the assay: Cell viability (neutral red), IC50. Type of assay: cell-based. Particulars: HMC primary mesothelial cells, CompuSyn.
Excerpt: as §1, §2

The next assay concerns HT29 cells. Nature of the assay: Cell viability (neutral red), IC50. Type of assay: cell-based. Particulars: Homo sapiens, HT-29, HT29 colon cancer cells, CompuSyn.
Excerpt: as §1, §2

A further assay concerns mitochondrial ATP. In words: Mitochondrial ATP in A549 cells. Type of assay: cell-based, Human. Particulars: 0.1 μM, 4 h. How it is done:
The amount of ATP was measured on 20 μg of mitochondrial extracts with the ATP Bioluminescent Assay Kit (FL-AA, Sigma Chemical Co.). Data were converted into nmoles/mg mitochondrial proteins, using a calibration curve previously set.
[t] Continuedof three experiments with similar results. (D) Confocal analysis of mitochondrial staining with MitoTracker® Green FM. Magnification: 60 × objective (0.52 numerical aperture); 10 × ocular lens. Bar: 10 μM. The micrographs are representative of three experiments with similar results. (E,F) The electron transport was measured spectrophotometrically in duplicates. ATP levels in mitochondrial extracts was measured by a chemiluminescence-based assay, in duplicates. Data are means ± SD (n = 3). For both panels: ^∗p < 0.001 vs. A549 ctrl cells; °p < 0.001 for BEAS-2B cells vs. the corresponding condition in A549 cells. (G,H) ROS amount in mitochondrial extracts and mitochondrial damage were measured fluorimetrically, in duplicates. Data are means ± SD (n = 3). For both panels: ^∗p < 0.001 vs. A549 ctrl cells; °p < 0.001 for BEAS-2B cells vs. the corresponding condition in A549 cells. There were no statistically significant differences between untreated (ctrl) and compound 1/compound 2-treated BEAS-2B cells for all the parameters analyzed in this figure.

The subject of another assay is A549 cells. In words: Mitochondrial mass (MitoTracker Green staining). Type of assay: cell-based, Human. Conditions: 0.1 μM, 4 h. On the procedure: The amount of proteins in mitochondrial extracts, normalized to the total amount of cellular proteins, was considered an index of mitochondrial mass ([Jean et al., 2015]). Mitochondria biogenesis was evaluated by measuring the expressions of subunit I of COX-I, which is encoded by mitochondrial DNA, and of the SDH-A of complex II, which is encoded by nuclear DNA, using the MitoBiogenesis^TM In-Cell ELISA Kit (Abcam), following the manufacturer’s instructions. The unit (U) of each protein/mg mitochondrial proteins were calculated. Results were expressed as COX-1/SDH-A ratio.
0.5 × 10^5 cells were grown on sterile glass coverslips. […] The samples were analyzed with an Olympus FV300 laser scanning confocal microscope equipped with a Blue Argon (488 nm) laser, a Green Helium Neon (543 nm) laser, and FluoView 300 software (Olympus Biosystems, Hamburg, Germany). […]
[t] […] (E,F) The electron transport was measured spectrophotometrically in duplicates. ATP levels in mitochondrial extracts was measured by a chemiluminescence-based assay, in duplicates. […] (G,H) ROS amount in mitochondrial extracts and mitochondrial damage were measured fluorimetrically, in duplicates. […] There were no statistically significant differences between untreated (ctrl) and compound 1/compound 2-treated BEAS-2B cells for all the parameters analyzed in this figure.

For `CC(=O)Oc1ccc(C[P+](c2ccccc2)(c2ccccc2)c2ccccc2)cc1.[Br-]` [Compound 1], the “mitochondrial ROS” value in the assay on mitochondrial ROS is “acutely increased”. Also, the IC50 in the assay on MDA-MB-231 cells came to 8.32 ± 1.25 µM; in the assay with CCD-18Co cells it was 18.2 ± 1.29 µM; in the assay with MCF10A cells it was 7.52 ± 0.43 µM; with Primary osteoblasts, 6.46 ± 0.83 µM; in [1] it was 4.39 ± 0.35 µM; in assay [2] it was 7.37 ± 0.89 µM. Besides, the IC50 in the assay with HT29 cells came out at 4.45 ± 0.78 µM. Moreover, the “amount of mitochondrial ATP” value in the assay with mitochondrial ATP is “significant decrease”. Besides, the mitochondrial mass result with A549 cells is “reduced the mitochondrial mass”.

Regarding `O=C(Oc1ccc(C[P+](c2ccccc2)(c2ccccc2)c2ccccc2)cc1C(F)(F)F)c1ccccc1.[Br-]` [Compound 2], in the assay on mitochondrial ROS, the “mitochondrial ROS” value was “acutely increased”. The IC50 is 0.34 ± 0.11 µM in the assay on MDA-MB-231 cells; 7.89 ± 0.36 µM in the assay with CCD-18Co cells; 6.32 ± 0.41 µM in the assay with MCF10A cells; 3.41 ± 0.73 µM with Primary osteoblasts; 0.82 ± 0.07 µM in assay [1]; 39.1 ± 4.34 µM in assay [2]. In addition, in the assay with HT29 cells, the IC50 came to 3.81 ± 0.47 µM. Also, in the assay on mitochondrial ATP, the “amount of mitochondrial ATP” value was “significant decrease”. Also, the mitochondrial mass result in the assay with A549 cells is recorded as “reduced the mitochondrial mass”.
